In patent US20260124213A1, “STAPHYLOCOCCUS AUREUS PBP4 INHIBITORS AND METHOD OF USE” (UNIVERSITY OF ROCHESTER, priority 2022, published 2026):

What was measured:
[1] = system: MRSA strain ATCC BAA-1556; assay: Broth microdilution antibiotic potentiation; type: cell-based, Staphylococcus aureus; details: ATCC BAA-1556
Outline: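 MRSA grown 6 h in CAMHB, subcultured to 5×10^5 CFU/mL, then adjuvant compound added from DMSO stock. Antibiotic serially 2-fold diluted across plate in adjuvant-containing culture, antibiotic-alone as control; plates incubated at 37° C.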

strain CRBΔpbp4 = assay: microbe, parasite or virus in culture; type: cell-based, Staphylococcus aureus; details: CRBΔpbp4
HEPG2 cells = assay: MTT cell viability / mammalian cytotoxicity; type: cell-based, human; details: 100 μM; HEPG2 approx. 2.5 × 10^5 cells/mL; Ex. 3 series
Description: Eukaryotic Toxicity Testing. Two rounds of eukaryotic toxicity testing were performed. Initially hits of interest were evaluated for antifungal activity in high throughput manner. To do so, 10^5 CFU of Saccharomyces cerevisiae YSB1001 cells (10 μL) were inoculated into individual wells of a microtiter plate containing yeast peptone dextrose media (88 μL) and 50 μM of each hit (2 μL). […] More extensive mammalian cytotoxicity testing was performed on the indicated highest priority hits of interest following International Organization for Standardization guidelines. Briefly, human liver epithelial cells (HEPG2) were cultured in Dulbecco's modified Eagle medium (DMEM; Fisher Scientific®) supplemented with 10% heat inactivated fetal bovine serum (FBS; Corning Life Sciences, Corning, NY) and 1% penicillin and streptomycin. Cells were incubated at 37° C. with 5% CO2 in Nunc™ tissue culture flasks (Roskilde, Denmark) until reaching 70% confluency. Cells were removed with 0.25% trypsin (Fisher Scientific®), resuspended in fresh medium, and used to seed approximately 2.5×10^5 mL^−1 cells into individual wells of a 96 well tissue culture microplate (Nunc™) containing 200 μL of fresh medium, and incubated for 24 hours. […] Mixtures were incubated for 20-24 h at 37° C. with 5% CO2, the media was removed and replaced with 100 μL fresh media and 10 μL of 12 mM (3-(4,5-dimethylthiazol-2-yl)-2,5-diphenyltetrazolium bromide (MTT) reagent (Cyquant™ Cell Viability kit; Invitrogen™, Carlsbad, CA) was added to each well. Cells were incubated at 37° C. with 5% CO2 for 2-4 hour, 85 μL of media was removed and the remainder was mixed with 50 μL DMSO and incubated for an additional 10 minutes at 37° C. in the dark. Using a SpectraMax® M5 microplate reader, cell viability was recorded as absorbance at OD540 nm. All compounds were tested in triplicate and cell viability was expressed as a percent viability of treated cells in comparison to mock treated cells. […]

pbp4 expression in CRB = assay: Quantitative reverse transcriptase PCR of pbp4 transcript; type: cell-based, Staphylococcus aureus; details: 25 μM, 3 hour
Description: (§1) Quantitative Reverse Transcriptase PCR. PBP4 transcript titers of bacterial cells exposed to putative PBP4 inhibitors were measured using real time quantitative PCR (RT-qPCR), as previously described (Chojnacki, et al. Antibiotics, 2021, 10, 369). Briefly, overnight cultures of S. aureus strains USA300, USA300Δpbp4, CRB, and CRBΔpbp4 were grown overnight in MH media, diluted (1:100 dilution) in fresh media and sub-cultured to a final OD600 nm of 0.2 at 37° C. with aeration. […] Cells were washed with PBS buffer, and collected via centrifugation at 1,250×g for 10 minutes. Total bacterial RNA was isolated from cell pellets using Qiagen® RNeasy kits, following the manufacturer's guidelines for prokaryotic RNA isolation (Qiagen®, Germantown, MD). A total of 2 μg RNA was DNase treated and repurified using RNeasy kits.
(§2) To measure pbp4 expression, a total of 400 ng of total bacterial RNA was used as a template for qRT-PCR using pbp4 primers (forward, 5′-[…]-3′; reverse, 5′-[…]-3′) and a total of 4 ng of total bacterial RNA was used as a template for primers specific for 16S rRNA (forward, 5′-[…]-3′; reverse, 5′-[…]-3′). Bacterial RNA was amplified and measured using PerfeCTa® SYBR Green FastMix® and qScript® cDNA SuperMix® kits following the manufacturer's recommendations (QuantaBio®, Beverly, MA). […]

[2] = system: pbp4 expression in USA300; assay: as above; type: cell-based, Staphylococcus aureus; details: 25 μM, 3 hour
Description: as §1, §2

[3] = Ex. 3 compound at 60 μM (18 and 19 at 30 μM)

With `O=C(Nc1ccc2[nH]c(-c3cccs3)nc2c1)c1ccco1` [Compound 1 (7729837)] the “Ampicillin MIC” value [1, 3] was 8 µg/mL, the “Ampicillin MIC fold reduction” value [1, 3] was “(2)” and the “Cefotaxime MIC” value [1, 3] was 16 µg/mL. The “Cefotaxime MIC fold reduction” value [1, 3] was “(2)”, the “Oxacillin MIC” value [1, 3] was 2 µg/mL and the “Amoxicillin MIC” value ([1]; with Ex. 3 compound) was 8 µg/mL. For the same compound, the “Cephalothin MIC” value ([1]; with Ex. 3 compound) was 1 µg/mL, the “Cephalothin MIC fold reduction” value ([1]; with Ex. 3 compound) was 16 and the “Penicillin G MIC” value ([1]; with Ex. 3 compound) was 2 µg/mL. For the same compound, the “Piperacillin MIC” value ([1]; with Ex. 3 compound) was 8 µg/mL, the “Piperacillin MIC fold reduction” value ([1]; with Ex. 3 compound) was 2 and the “Cmpd (putative PBP4 inhibitor) MIC, Alone” value (strain CRBΔpbp4) was 400 µM. For the same compound, the “Fold-decrease in ceftobiprole resistance in combination” value (strain CRBΔpbp4) was 0, the “Cmpd concentration, Combination” value (strain CRBΔpbp4; with ceftobiprole) was 50 µM and the “BPR (ceftobiprole) MIC, Combination” value (strain CRBΔpbp4; with putative PBP4 inhibitor) was 0.25 µg/mL. For the same compound, the “Toxicity with HEPG2 Cells (cell viability)” value (HEPG2 cells) was 95±16.8%, the “pbp4 expression (qRT-PCR)” value (pbp4 expression in CRB) was “significantly reduced” and the “pbp4 expression (qRT-PCR)” value [2] was “slightly reduced”.
